Laboratory results taken from patent US20240368159A1, “HPK1 DEGRADERS, COMPOSITIONS COMPRISING THE HPK1 DEGRADER, AND METHODS OF USING THE SAME” (BIOFRONT LTD, priority 2021, published 2024).

Assays:
HPK1 p-SLP-76 = HPK1 p-SLP-76 inhibition assay in human PBMC (HTRF); type: cell-based; settings: 6 h compound, anti-CD3 stimulation 20 min
Procedure: Human PBMC were purchased from OriCells (FPB004F-C). Before compound treatment, PBMC were starved in PRMI-1640 medium supplemented with 0.5% FBS overnight. The cell density was adjusted to 1*10^7 cells/mL in assay medium (RPMI-1640 no phenol red with 0.5% FBS) and 16 μL cell suspension was transferred per well to a 384-well plate (Corning #3765). 6× solution of test compound was prepared in assay medium and 4 μL was added per well to the 384-well plate. The plate was then incubated at 37° C., 5% CO2 for 6 h. PBMC in 384-well plate were stimulated with anti-CD3 (BD Biosciences #555329, final conc. is 10 ug/mL) for 20 min at 37° C., 5% CO2 by adding 4 μL 6× antibody solution per well. Phospho-SLP76 HTRF kit was purchased from Cisbio (63ADK076PEH). 8 μL 4× Lysis Buffer was added to 384-well plate after anti-CD3 stimulation. The plate was centrifuged at 1,000 rpm for 1 min, shaken at 250 rpm for 60 min and centrifuged again at 1,000 rpm for 5 min. Afterwards the cell lysates were transferred to the assay plate (Greiner #784075) with 16 μL per well. 4 μL detection antibody mix per well prepared in Detection Buffer was added to the assay plate, followed by centrifugation at 1,000 rpm for 1 min and incubation at 25° C. overnight.

HPK1 protein [1] = target: T1, HPK1 protein (Homo sapiens, UniProt Q92918); test: HPK1 enzyme inhibition assay (ADP-Glo); type: biochemical; settings: MBP substrate, ATP, ADP-Glo readout
T1 construct: purchased Signal Chem M23-11G-10
T1 sequence (Q92918 1-346 limits assumed): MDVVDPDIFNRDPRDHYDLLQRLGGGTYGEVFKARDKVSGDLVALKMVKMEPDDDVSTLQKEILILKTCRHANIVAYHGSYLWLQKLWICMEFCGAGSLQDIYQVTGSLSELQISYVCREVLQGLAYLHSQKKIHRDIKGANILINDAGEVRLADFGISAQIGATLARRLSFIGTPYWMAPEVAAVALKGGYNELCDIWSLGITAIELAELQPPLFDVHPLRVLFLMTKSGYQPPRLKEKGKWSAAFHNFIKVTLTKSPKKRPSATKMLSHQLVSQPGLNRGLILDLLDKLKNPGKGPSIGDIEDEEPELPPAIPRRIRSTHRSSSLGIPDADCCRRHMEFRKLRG
Summary of the method: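 Recombinant human HPK1 preincubated with compound 60 min at 25 °C, then reaction with MBP (0.2 ug/ul, 2× stock) and ATP (20 μM, 2× stock) 60 min at 25 °C. ADP formed detected by ADP-Glo after ATP depletion and conversion to ATP; IC50 calculated from signal.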

HPK1 protein [2] = target: T2, HPK1 protein (Homo sapiens, UniProt Q92918); test: HPK1 protein degradation in human PBMC (western blot); type: cell-based; settings: 18 h incubation
T2 construct: Frozen human PBMC were purchased from Shanghai OribioTech; host or cells: human PBMC
Procedure: HPK1 protein degradation in human PBMC: Frozen human PBMC were purchased from Shanghai OribioTech and recovered with culture medium (RMPI1640) prior to use. The cells were then incubated with a variety of concentrations of compound. After incubation for 18 h, the cells were collected and lysed. The protein concentration was determined by BCA protein assay kit from Thermo (23227). The HPK1 protein level was determined by western blots, using anti-human HPK1 polyclonal antibody from CST (4472S). Proteins were loaded into each well of the pre-casting gels and subjected to electrophoretic separation by SDS-PAGE. The protein resolved by SDS-PAGE were transferred to PVDF, blocked by 5% skim milk, and probed with anti-human HPK1 antibody or β-actin antibody from CST (3700S), using standard western blotting procedure.
T2 sequence (Q92918 whole entry): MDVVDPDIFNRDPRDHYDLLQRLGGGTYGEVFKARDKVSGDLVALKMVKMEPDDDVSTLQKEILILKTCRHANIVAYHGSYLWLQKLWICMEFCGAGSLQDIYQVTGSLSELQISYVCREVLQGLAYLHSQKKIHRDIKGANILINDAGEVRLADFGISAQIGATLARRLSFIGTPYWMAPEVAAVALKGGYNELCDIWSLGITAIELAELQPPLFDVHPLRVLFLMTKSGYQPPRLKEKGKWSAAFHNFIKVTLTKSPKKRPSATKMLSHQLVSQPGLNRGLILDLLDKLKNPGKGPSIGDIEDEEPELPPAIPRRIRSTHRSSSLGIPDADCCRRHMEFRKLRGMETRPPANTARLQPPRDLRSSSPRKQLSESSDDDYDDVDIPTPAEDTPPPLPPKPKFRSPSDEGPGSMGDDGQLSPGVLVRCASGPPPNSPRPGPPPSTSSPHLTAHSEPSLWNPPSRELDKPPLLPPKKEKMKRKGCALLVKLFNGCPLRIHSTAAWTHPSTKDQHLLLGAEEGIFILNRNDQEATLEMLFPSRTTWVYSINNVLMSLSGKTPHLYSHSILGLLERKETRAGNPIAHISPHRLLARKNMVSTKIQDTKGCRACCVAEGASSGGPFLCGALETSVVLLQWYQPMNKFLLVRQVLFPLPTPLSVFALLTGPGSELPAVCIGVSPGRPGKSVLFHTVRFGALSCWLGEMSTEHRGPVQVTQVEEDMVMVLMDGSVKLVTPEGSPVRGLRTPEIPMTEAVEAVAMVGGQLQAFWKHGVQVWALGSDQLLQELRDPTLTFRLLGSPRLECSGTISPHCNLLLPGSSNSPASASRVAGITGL

HPK1 protein [3] = target: T3, HPK1 protein (Mus musculus, UniProt P70218); test: HPK1 protein degradation in mouse pan T cell (western blot); type: cell-based; settings: 18 h incubation
T3 construct: the CD3+ T cell population was isolated from spleenocytes of mice; endogenous in cells; host or cells: primary mouse splenic CD3+ (pan) T cells
T3 sequence (P70218 1-827): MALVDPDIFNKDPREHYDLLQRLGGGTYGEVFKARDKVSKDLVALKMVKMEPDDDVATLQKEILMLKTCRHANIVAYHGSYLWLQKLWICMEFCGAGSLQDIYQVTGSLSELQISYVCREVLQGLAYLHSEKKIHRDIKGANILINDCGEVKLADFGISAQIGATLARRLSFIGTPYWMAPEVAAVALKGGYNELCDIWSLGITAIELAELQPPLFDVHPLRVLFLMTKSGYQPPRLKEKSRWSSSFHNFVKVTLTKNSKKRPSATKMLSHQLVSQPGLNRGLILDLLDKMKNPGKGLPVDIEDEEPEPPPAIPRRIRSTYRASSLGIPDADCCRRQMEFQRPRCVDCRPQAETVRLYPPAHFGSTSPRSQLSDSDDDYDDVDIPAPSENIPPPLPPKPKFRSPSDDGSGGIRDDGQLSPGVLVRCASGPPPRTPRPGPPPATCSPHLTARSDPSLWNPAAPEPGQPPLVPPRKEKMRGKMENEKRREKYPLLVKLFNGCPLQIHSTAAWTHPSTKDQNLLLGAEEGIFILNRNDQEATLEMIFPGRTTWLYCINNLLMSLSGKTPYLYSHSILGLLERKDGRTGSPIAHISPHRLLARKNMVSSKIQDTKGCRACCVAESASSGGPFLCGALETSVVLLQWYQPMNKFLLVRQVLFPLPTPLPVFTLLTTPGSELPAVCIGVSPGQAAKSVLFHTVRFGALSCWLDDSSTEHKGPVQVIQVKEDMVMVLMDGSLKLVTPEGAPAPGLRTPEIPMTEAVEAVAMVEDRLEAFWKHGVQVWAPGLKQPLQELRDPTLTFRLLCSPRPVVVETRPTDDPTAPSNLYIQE
Procedure: HPK1 protein degradation in mouse pan T cell: the CD3+ T cell population was isolated from spleenocytes of mice by using Pan T cell isolation kit from Miltenyi Biotec (130-095-130) following manufacture's instruction. The isolated T cells were then incubated with a variety of concentrations of compound. After incubation for 18 h, the cells were collected and lysed. The protein concentration was determined by BCA protein assay kit from Thermo (23227). The HPK1 protein level was determined by western blots, using anti-human HPK1 polyclonal antibody from CST (4472). Proteins were loaded into each well of the pre-casting gels and subjected to electrophoretic separation by SDS-PAGE. The protein resolved by SDS-PAGE were transferred to PVDF, blocked by 5% skim milk and probed with anti-human HPK1 antibody or β-actin antibody from CST (3700S), using following standard western blotting procedure.

SMILES | IC50 (HPK1 p-SLP-76) [nM] | IC50 (HPK1 protein [1]) [nM] | Dmax (HPK1 protein [2]) [%] | Dmax (HPK1 protein [3]) [%]
CCc1c[nH]c2ncc(-c3cccc(N4CCN(CCN5CCN(c6ccc7c(c6)C(=O)N(C6CCC(=O)NC6=O)C7=O)CC5)CC4=O)c3)c(Cl)c12 (stereo not drawn) [Example 28, 5-(4-(2-(4-(3-(4-chloro-3-ethyl-1H-pyrrolo[2,3-b]pyridin-5-yl)phenyl)-3-oxopiperazin-1-yl)ethyl)piperazin-1-yl)-2-(2,6-dioxopiperidin-3-yl)isoindoline-1,3-dione] | 300 to 3000 | 10 to 100 | 80 | 
O=C1CCC(N2C(=O)c3cc(F)c(N4CCN(CCCN5CCN(c6cccc(-c7cnc8[nH]cc(C9CC9)c8c7Cl)n6)C(=O)C5)CC4)cc3C2=O)C(=O)N1 (stereo not drawn) [Example 53, 5-(4-(3-(4-(6-(4-chloro-3-cyclopropyl-1H-pyrrolo[2,3-b]pyridin-5-yl)pyridin-2-yl)-3-oxopiperazin-1-yl)propyl)piperazin-1-yl)-2-(2,6-dioxopiperidin-3-yl)-6-fluoroisoindoline-1,3-dione] |  | 10 to 100 | 86 | 95
O=C1CCC(N2Cc3ccc(N4CCC(OCC(=O)N5CCN(c6cccc(-c7cnc8[nH]cc(C9CC9)c8c7Cl)c6)C(=O)C5)CC4)cc3C2=O)C(=O)N1 (stereo not drawn) [Example 46] |  | ≤ 10 | 51 | 90
O=C1CCC(N2C(=O)c3cc(F)c(N4CCN(C5CC(CN6CCN(c7cccc(-c8cnc9[nH]cc(C%10CC%10)c9c8Cl)c7)C(=O)C6)C5)CC4)cc3C2=O)C(=O)N1 (stereo not drawn) [Example 51, 5-(4-(3-((4-(3-(4-chloro-3-cyclopropyl-1H-pyrrolo[2,3-b]pyridin-5-yl)phenyl)-3-oxopiperazin-1-yl)methyl)cyclobutyl)piperazin-1-yl)-2-(2,6-dioxopiperidin-3-yl)-6-fluoroisoindoline-1,3-dione] |  | 10 to 100 | 96 | 95
O=C1CCN(c2cccc3cc(N4CCC(OCCN5CCN(c6cccc(-c7cnc8[nH]cc(C9CC9)c8c7Cl)n6)C(=O)C5)CC4)ccc23)C(=O)N1 [Example 72] | 300 to 3000 | 10 to 100 | 30 | 
O=C1CCC(N2Cc3cc(N4CCC(OCC(=O)N5CCN(c6cccc(-c7cnc8[nH]cc(C9CC9)c8c7Cl)c6)C(=O)C5)CC4)ccc3C2=O)C(=O)N1 (stereo not drawn) [Example 47] |  | ≤ 10 | 85 | 95
O=C1CCC(N2C(=O)c3ccc(N4CCC(OCC(=O)N5CCN(c6cccc(-c7cnc8[nH]cc(C9CC9)c8c7Cl)c6)C(=O)C5)CC4)cc3C2=O)C(=O)N1 (stereo not drawn) [Example 31] |  | 10 to 100 | 98 | 95
CCc1c[nH]c2ncc(-c3cccc(N4CCN(CCC(=O)N5CCN(c6cc7c(cc6F)C(=O)N(C6CCC(=O)NC6=O)C7=O)CC5)CC4=O)c3)c(Cl)c12 (stereo not drawn) [Example 30, 5-(4-(3-(4-(3-(4-chloro-3-ethyl-1H-pyrrolo[2,3-b]pyridin-5-yl)phenyl)-3-oxopiperazin-1-yl)propanoyl)piperazin-1-yl)-2-(2,6-dioxopiperidin-3-yl)-6-fluoroisoindoline-1,3-dione] |  | 10 to 100 | 61 | 80
O=C1CCN(c2cccc3cc(N4CCN(CCCN5CCN(c6cccc(-c7cnc8[nH]cc(C9CC9)c8c7Cl)n6)C(=O)C5)CC4)ccc23)C(=O)N1 [Example 69, 1-(6-(4-(3-(4-(6-(4-chloro-3-cyclopropyl-1H-pyrrolo[2,3-b]pyridin-5-yl)pyridin-2-yl)-3-oxopiperazin-1-yl)propyl)piperazin-1-yl)naphthalen-1-yl)dihydropyrimidine-2,4 (1H,3H)-dione] | 300 to 3000 | ≤ 10 | 74 | 
O=C1CCC(N2C(=O)c3cc(F)c(N4CCN(CCCN5CCN(c6cccc(-c7cnc8[nH]cc(CC(F)F)c8c7Cl)c6)C(=O)C5)CC4)cc3C2=O)C(=O)N1 (stereo not drawn) [Example 41] |  | 10 to 100 | 90 | 95
CCc1c[nH]c2ncc(-c3cccc(N4CCN(CC5CCN(c6cc7c(cc6F)C(=O)N(C6CCC(=O)NC6=O)C7=O)CC5)CC4=O)c3)c(Cl)c12 (stereo not drawn) [Example 38, 5-(4-((4-(3-(4-chloro-3-ethyl-1H-pyrrolo[2,3-b]pyridin-5-yl)phenyl)-3-oxopiperazin-1-yl)methyl)piperidin-1-yl)-2-(2,6-dioxopiperidin-3-yl)-6-fluoro isoindoline-1,3-dione] |  | 10 to 100 | 30 | 90
O=C1CCC(N2C(=O)c3cc(F)c(N4CCC(OCCCN5CCN(c6cccc(-c7cnc8[nH]cc(C9CC9)c8c7Cl)c6)C(=O)C5)CC4)cc3C2=O)C(=O)N1 (stereo not drawn) [Example 40, 5-(4-(3-(4-(3-(4-chloro-3-cyclopropyl-1H-pyrrolo[2,3-b]pyridin-5-yl)phenyl)-3-oxopiperazin-1-yl)propoxy)piperidin-1-yl)-2-(2,6-dioxopiperidin-3-yl)-6-fluoroisoindoline-1,3-dione] |  | 10 to 100 | 88 | 95
O=C1CCC(N2C(=O)c3cc(F)c(N4CCC(CCN5CCN(c6cccc(-c7cnc8[nH]cc(CC(F)F)c8c7Cl)c6)C(=O)C5)CC4)cc3C2=O)C(=O)N1 (stereo not drawn) [Example 55] |  | 100 to 1000 | 55 | 95
CCc1c[nH]c2ncc(-c3cccc(N4CCN(S(=O)(=O)CCN5CCN(c6ccc7c(c6)C(=O)N(C6CCC(=O)NC6=O)C7=O)CC5)CC4=O)c3)c(Cl)c12 (stereo not drawn) [Example 100] |  | 10 to 100 | 93 | 90
